# Columns and labels:
# Solubility = format: physicochemical
# in vivo = settings: dog; for Tmax / half-life / AUC(0-inf) / AUC(0-t) / CL/F / Cmax / Vd/F: beagle, po
# Method: (§1) Groups of four purpose-bred beagles per cohort were administered ascending doses of bexagliflozin in the form of a proline co-crystal consisting of two moles of L-proline for every mole of bexagliflozin. The co-crystal was dissolved in 10% PEG400 and administered by oral gavage to dogs that had been fasted overnight. Control dogs were administered 10% PEG400. One hour after dosing, glucose solution (2 g kg^−1, 5 ml kg^−1) was administered by gavage. Serum glucose concentrations were quantitated by an automated clinical chemistry analyzer for samples collected before dosing, before glucose challenge, and 15, 30, 60, and 120 min after glucose challenge. Urine was collected from 0 to 4 h, 4 to 8 h and 8 to 24 h after dosing for electrolyte analyses (Na^+, K^+, Cl^− and Ca^2+) and glucose measurement. Whole blood samples of approximately 500 μL were collected from the cephalic vein 0, 0.25, 0.5, 1, 2, 4, 8, 12 and 24 h after dosing for pharmacokinetic analysis.
# feline SGLT2 = test: Inhibition of feline SGLT2
# purpose-bred beagles = test: Serum glucose after single oral dose and glucose challenge 1 h post-dose in dogs; format: in vivo, dog; settings: mean ± SD
# Method: as §1
# [1] = 0.02 mg kg^−1 oral, after glucose challenge
structure (smiles),measurement,setting,value
"OC[C@H]1O[C@@H](c2ccc(Cl)c(Cc3ccc(OCCOC4CC4)cc3)c2)[C@H](O)[C@@H](O)[C@@H]1O [Bexagliflozin, (2S,3R,4R,5 S,6R)-2-(4-chloro-3-(4-(2-cyclopropoxyethoxy)benzyl)phenyl)-6-(hydroxymethyl)tetrahydro-2H-pyran-3,4,5-triol]","solubility in ethanol, propylene glycol and PEGs relative to water",Solubility,more soluble
same,solubility,Solubility; water at 25° C.,~500 µg/mL
same,Tmax,in vivo,~0.5 h
same,half-life,in vivo,1.67 to 5.23 h
same,AUC(0-inf),in vivo; 0.02 mg/kg,45.3 ± 7.9 ng·h/mL
same,AUC(0-t),in vivo; 0.02 mg/kg,35.6 ± 5.2 ng·h/mL
same,CL/F,in vivo; 0.02 mg/kg,7.6 mL/min/kg
same,Cmax,in vivo; 0.02 mg/kg,16.3 ± 2.7 ng/mL
same,Tmax,in vivo; 0.02 mg/kg,0.5 h
same,Vd/F,in vivo; 0.02 mg/kg,1.08 ± 0.128 L/kg
same,half-life,in vivo; 0.02 mg/kg,1.67 ± 0.26 h
same,AUC(0-inf),in vivo; 0.067 mg/kg,257 ± 62 ng·h/mL
same,AUC(0-t),in vivo; 0.067 mg/kg,240 ± 55 ng·h/mL
same,CL/F,in vivo; 0.067 mg/kg,4.53 mL/min/kg
same,Cmax,in vivo; 0.067 mg/kg,72.9 ± 11 ng/mL
same,Tmax,in vivo; 0.067 mg/kg,0.5 h
same,Vd/F,in vivo; 0.067 mg/kg,1.06 ± 0.067 L/kg
same,half-life,in vivo; 0.067 mg/kg,2.81 ± 0.61 h
same,AUC(0-inf),in vivo; 0.2 mg/kg,769 ± 95 ng·h/mL
same,AUC(0-t),in vivo; 0.2 mg/kg,725 ± 80 ng·h/mL
same,CL/F,in vivo; 0.2 mg/kg,4.42 mL/min/kg
same,Cmax,in vivo; 0.2 mg/kg,233 ± 26 ng/mL
same,Tmax,in vivo; 0.2 mg/kg,0.25 h
same,Vd/F,in vivo; 0.2 mg/kg,1.12 ± 0.08 L/kg
same,half-life,in vivo; 0.2 mg/kg,2.95 ± 0.28 h
same,AUC(0-inf),in vivo; 0.67 mg/kg,2670 ± 131 ng·h/mL
same,AUC(0-t),in vivo; 0.67 mg/kg,2600 ± 104 ng·h/mL
same,CL/F,in vivo; 0.67 mg/kg,4.2 mL/min/kg
same,Cmax,in vivo; 0.67 mg/kg,801 ± 46 ng/mL
same,Tmax,in vivo; 0.67 mg/kg,0.5 h
same,Vd/F,in vivo; 0.67 mg/kg,1.89 ± 0.398 L/kg
same,half-life,in vivo; 0.67 mg/kg,5.23 ± 1.23 h
same,AUC(0-inf),in vivo; 2 mg/kg,8700 ± 1470 ng·h/mL
same,AUC(0-t),in vivo; 2 mg/kg,8600 ± 1520 ng·h/mL
same,CL/F,in vivo; 2 mg/kg,3.95 mL/min/kg
same,Cmax,in vivo; 2 mg/kg,2200 ± 539 ng/mL
same,Tmax,in vivo; 2 mg/kg,0.5 h
same,Vd/F,in vivo; 2 mg/kg,1.37 ± 0.601 L/kg
same,half-life,in vivo; 2 mg/kg,3.89 ± 0.88 h
same,dose proportionality of Cmax and AUC,in vivo,roughly dose proportional
same,inhibition of feline SGLT2 (in words),feline SGLT2,potent but less selective inhibitor
same,"Serum Glucose Concentration, 15 min",purpose-bred beagles; [1],122.13 ± 17.54 mg/dL
same,"Serum Glucose Concentration, 30 min",purpose-bred beagles; [1],97.43 ± 6.87 mg/dL
same,"Serum Glucose Concentration, 60 min",purpose-bred beagles; [1],93.29 ± 19.87 mg/dL
same,"Serum Glucose Concentration, 120 min",purpose-bred beagles; [1],78.03 ± 10.98 mg/dL
same,"Serum Glucose Concentration, −60 min","purpose-bred beagles; 0.02 mg kg^−1 oral, before dosing, time relative to glucose challenge",100.89 ± 3.49 mg/dL
same,"Serum Glucose Concentration, 0 min","purpose-bred beagles; 0.02 mg kg^−1 oral, before glucose challenge (1 h post-dose)",95.94 ± 8.37 mg/dL
same,"Serum Glucose Concentration, 15 min","purpose-bred beagles; 0.067 mg kg^−1 oral, after glucose challenge",107.91 ± 12.08 mg/dL
